The nature of the data set: GHS categories as the set defines them, by LD50: 1 up to 5, 2 up to 50, 3 up to 300, 4 up to 2000, 5 above 2000 mg/kg. Particulars: rat; in vivo; po.
In turn, `CC(C)(C)CC(C)(C)c1ccc(O)c(-n2nc3ccccc3n2)c1` came in with a GHS category of 5.
Under `CCOC(=O)C(=O)Nc1cc(SCCOCCOC)ncn1` stands 4; under `CC1(C)CCC(=Cc2ccc(Cl)cc2)C1(O)Cn1cncn1` (configuration not stated), 5.
Next, `COc1ccc2c(c1)CCN(c1ccccc1)C2c1ccccc1N` (configuration not stated): 4; `Cc1cc(C(=O)Nc2cccc(C)c2C)n[nH]1`: 5.
Consider `CNC(=O)c1cnc2cccc(C)n2c1=O`, for which the GHS category came out at 3.
Next, `CC(C)=CCN(CC=C(C)C)CCC(C#N)(c1ccc2ccccc2c1)C(C)C` (configuration not stated): 4.
Under `CCCCCCCCCC(=O)Oc1ccc(C(=O)O)cc1` stands 5; under `CCOC(=O)C(C)(C)Oc1ccc2c(c1)C=C(n1ccnc1)CC2`, 5; under `CCOP(=O)(CC(=O)Nc1cc2c(Nc3ccc(F)c(Cl)c3)ncnc2cc1O[C@H]1CCOC1)OCC`, 5.
Turning to `COc1cnc(OC)n2nc(NS(=O)(=O)c3c(OCC(F)F)cccc3C(F)(F)F)nc12`, the GHS category turned out to be 5.
Under `CCCCCCCCCCCC(=O)OCC(C)O` (configuration not stated) stands 5.
For `Nc1ccc(C(=O)O)cc1`, the GHS category was 5.
Molecule `CCC=CCC=O` had a GHS category of 5.
Next, `CC(C)CCCCCCCOP(=O)(Oc1ccccc1)Oc1ccccc1`: 5; `CCNc1nc(Nc2ccccc2)nc(Nc2ccc(C=Cc3ccc(Nc4nc(NCC)nc(Nc5ccccc5)n4)cc3S(=O)(=O)O)c(S(=O)(=O)O)c2)n1`: 5; `CCCC(=O)C(C)=O`: 5.
Under `Cc1cccc(C)c1OP(=O)(Oc1c(C)cccc1C)Oc1c(C)cccc1C` stands 5; under `CC(C)CCCC1CCC(C)(C(=O)O)CC1` (configuration not stated), 5.
Under `NP(N)(=O)Nc1ccccc1[N+](=O)[O-]` stands 5; under `CCCCCCc1ccc(OP(=O)(Oc2ccccc2)Oc2ccccc2)cc1`, 5; under `CCOC(=O)C(Cl)(Cl)Cl`, 5.
On to `CCOC(=O)C(F)(F)F`, for which the GHS category is 5.
Under `NS(=O)(=O)c1cc2c(cc1Cl)NC(Cc1ccccc1)NS2(=O)=O` (configuration not stated) stands 5; under `CC1CCC2C(C)(C)C3CC12CC1OC13C` (configuration not stated), 5.
The molecule `CC=CC(=O)OC/C=C(\C)CCC=C(C)C` came in with a GHS category of 5.
Under `CCCN[C@H]1CCc2nc(N)sc2C1` stands 4; under `COc1ccc(N)cc1N`, 5; under `CC[C@H]1C[C@H]2[C@@H]3CCC4=CC(=O)CC[C@@H]4[C@H]3CC[C@]2(C)[C@H]1OC(C)=O`, 5.
Next, `Cc1ccccc1OC(=O)c1cc(Cl)ccc1OC(N)=O`: 5; `CC(=O)OC1CC(C)CCC1C(C)C` (configuration not stated): 5; `CCCCn1c(C)c(C(=O)NC2CCN(CCc3ccccc3)CC2)c2cc(O)ccc21`: 5.
Next, `CCCCCCCCCCCCCCCCCC(=O)NCCCCC(NC(=O)CCC(NC(=O)C(C)NC(=O)C(C)OC1C(O)C(CO)OC(O)C1NC(C)=O)C(N)=O)C(=O)O` (configuration not stated): 4; `C=C(C)CC1CCCCCCCCCCC1=O` (configuration not stated): 5; `CCCCCCOC=O`: 5.
`CCc1ccccc1OP(=O)(Oc1ccccc1CC)Oc1ccccc1CC` came in with a GHS category of 5.
Under `CCC(=O)NP(=O)(OC)SC` (configuration not stated) stands 4; under `Cc1cc(C2(c3ccc(O)c(C)c3)CCCCC2)ccc1O`, 5.
With `NC(=S)NS(=O)(=O)c1ccc(N)cc1`, the GHS category amounted to 5.
Next, `CC/C=C\CCOC(=O)C(C)C`: 5; `CCCCCC1=C(CC(=O)OC)CCC1=O`: 5; `CC(=O)CC(=O)Nc1ccc(S(=O)(=O)O)cc1`: 5.
Under `COc1cc2nc(N3CCCC(N(C)Cc4ccc5c(c4)OCO5)C3)nc(N)c2cc1OC` (configuration not stated) stands 4; under `Cc1cnc(C2=NC(=O)C(C)(C(C)C)N2)c(C(=O)O)c1` (configuration not stated), 5.
Next, `C=CC(C)(CCC=C(C)C)OC(C)OCC` (configuration not stated): 5; `CC1(C)COB(OCC(C)(C)COB2OCC(C)(C)CO2)OC1`: 5; `CCCc1c(Cc2ccc(-c3ccccc3-c3nn[nH]n3)cc2)c(N2CCCCC2)nc2ncnn12`: 4.
As to `O=C(Nc1ccc(Cl)cc1)NS(=O)(=O)c1ccc2c(c1)CCC2`, the GHS category amounted to 4.
Next, `COc1ccccc1N=Nc1c(O)ccc2ccccc12`: 5.
Regarding `O=S(O)CO`, the GHS category turned out to be 5.
Under `ClCCCCc1nnnn1C1CCCCC1` stands 5; under `COC(=O)c1ccc2c(c1)NC(=O)C2`, 5; under `COC(=O)c1ccc(C(=O)Nc2cc(Cl)ccc2Cl)cc1[N+](=O)[O-]`, 4.
Next, `N#CCC(=O)c1ccccc1Cl`: 5.
Next, `CC1OC(OC2CCC(OC3C(O)CC(c4ccc5c(c4O)C(=O)C4=C(C5=O)C5(O)C(=O)CC(C)(OC6CCC(OC7C=CC(=O)C(C)O7)C(C)O6)CC5(O)C=C4)OC3C)OC2C)C=CC1=O` (configuration not stated): 4; `COc1cccc(N(C)C(=S)Oc2cccc(C(C)(C)C)c2)n1`: 5; `CCCc1c(Cc2ccc(-c3ccccc3-c3nn[nH]n3)cc2)c(OCCOC)nc2ncnn12`: 4.
As for `Clc1cccc(Cl)c1Nc1ccccc1`, the GHS category is 5.
Molecule `CCCCC(CC)COCOCC(CC)CCCC` (configuration not stated) registered a GHS category of 5.
Next, `CNc1ccc(C(=O)c2ccc(Cl)cc2)cc1O`: 5; `CC(CCO)CCCC(C)(C)O` (configuration not stated): 5.
Under `O=C(C(Cl)Cl)N(CCO)Cc1ccc(Oc2ccc([N+](=O)[O-])cc2)cc1` stands 5; under `CCOC(=O)[C@H](CCc1ccccc1)N[C@@H](C)C(=O)N1[C@H](C(=O)O)C[C@H]2CCCC[C@@H]21`, 5; under `CC(C)(C)c1cc(S)c(O)c(C(C)(C)C)c1`, 5.
Under `CCCc1nc2ncnn2c(N(CC)CC)c1Cc1ccc(-c2ccccc2-c2nn[nH]n2)cc1` stands 4; under `CCCCCCCCCCN(C)CCCCCCCCCC`, 4; under `COC(=O)NC(=S)Nc1ccc(OCc2ccccc2)cc1[N+](=O)[O-]`, 5.
Regarding `COc1ccc(OCCCCN2CCN(CCc3cc(OC)c(OC)c(OC)c3)CC2)c(C2Sc3ccccc3N2C(C)=O)c1` (configuration not stated), the GHS category came out at 4.
Under `CC(C)OC(=O)CCCCCCCCC(=O)OC(C)C` stands 5; under `COCC(=O)O[C@]1(CCN(C)CCCc2nc3ccccc3[nH]2)CCc2cc(F)ccc2[C@@H]1C(C)C`, 4; under `O=C1NC(=O)C(c2ccc(O)cc2)N1` (configuration not stated), 5.
Next, `NC(=O)CCNCCO`: 5; `CC(O)C(C)O` (configuration not stated): 5; `CCCc1c(Cc2ccc(-c3oc(Br)cc3-c3nn[nH]n3)cc2)c(=O)nc2nc[nH]n12`: 4.
Next, `CCOC(=O)c1cc(Cl)ccc1OC(N)=O`: 5; `C/C=C(\C)C(=O)O`: 5; `c1ccc(OCCOc2ccccc2)cc1`: 5.
In turn, `CC(=O)Oc1ccccc1C(=O)Oc1cccc(CO[N+](=O)[O-])c1` came in with a GHS category of 5.
Next, `C=CC(C)(CCC=C(C)C)OC(=O)c1ccccc1` (configuration not stated): 5; `CCC(C)C(C#N)(CCN(CC=C(C)C)CC=C(C)C)c1cccc2ccccc12` (configuration not stated): 4; `Cc1cc(Cc2cc(C)cc(C3CCCCC3)c2O)c(O)c(C2CCCCC2)c1`: 5.
Under `OC(c1ccccc1)c1ccc(-c2ccccc2)cc1` (configuration not stated) stands 5; under `COC(=O)[C@]1(C)CCC[C@@]2(C)[C@H]1CC=C1C=C(C(C)C)CC[C@@H]12`, 5; under `CCCc1c(Cc2ccc(-c3ccccc3C(N)=O)cc2)c(=O)nc2[nH]ncn12`, 4.
The molecule `CCC1CCC(=O)O1` (configuration not stated) came in with a GHS category of 5.
`CC(C)(C)C1CCC(OC(=O)Cl)CC1` (configuration not stated) gave a GHS category of 5.
With `Brc1c(Br)c(Br)c(OCCOc2c(Br)c(Br)c(Br)c(Br)c2Br)c(Br)c1Br`, the GHS category is 5.
Next, `CC[C@H]1C[C@@H]2CC[C@@H](O2)[C@@H](C)C(=O)O[C@H](CC)C[C@H]2CC[C@H](O2)[C@H](C)C(=O)O[C@@H](CC)C[C@@H]2CC[C@@H](O2)[C@@H](C)C(=O)O[C@H](CC)C[C@H]2CC[C@H](O2)[C@H](C)C(=O)O1`: 5.
Regarding `COC(=O)CC(C)C(=O)c1ccc(NC(=O)c2ccc(OC)cc2)c([N+](=O)[O-])c1` (configuration not stated), the GHS category stood at 5.
Next, `C[C@H]1COc2c(N3C[C@@H](N)C4(CCC4)C3)c(F)cc3c(=O)c(C(=O)O)cn1c23`: 5.
`C=CC(=O)OCC(CC)(COCC(CC)(COC(=O)C=C)COC(=O)C=C)COC(=O)C=C` came in with a GHS category of 5.
Consider `CCCCn1cc2c3c(cccc31)C1=C[C@@H](CO)CN(C)[C@@H]1C2`, for which the GHS category was 4.
As for `NC(=O)Oc1ccccc1C(=O)Oc1ccc(Cl)cc1Cl`, the GHS category was found to be 5.
Next, `Cc1ccc(C(=O)O)cc1[N+](=O)[O-]`: 5; `O=S(=O)(c1ccc(Cl)cc1)c1ccc(Cl)cc1`: 5.
Under `O=C(NCC(O)CCl)c1ccc([N+](=O)[O-])cc1` (configuration not stated) stands 3; under `CCCNC(=O)c1sc(-c2ccccc2OC)nc1C`, 5.
Next, `C#CCOc1cc(-n2nc3n(c2=O)CCCC3)c(Cl)cc1Cl`: 5.
Molecule `CCOC(=O)C1=C(C)NC(C)=C(C(=O)OCCN2C(=O)c3ccccc3S2(=O)=O)C1C` (configuration not stated) yielded a GHS category of 5.
Take `COc1ccc2c(c1)CCN(c1ccccc1)C2c1ccccc1F` (configuration not stated): the GHS category is recorded as 4.
Next, `C=C[Si](C)(C)Cl`: 3; `Cc1nc2n(c1/C=N/NC(=O)CN(C)C)CCS2`: 4.

Source of the values: the CATMoS acute toxicity set (Mansouri et al. 2021).
